Laboratory results: PMC5089669, “Biocatalytic Properties and Structural Analysis of Eugenol Oxidase from Rhodococcus jostii RHA1: A Versatile Oxidative Biocatalyst” (Chembiochem, 2016)

How the values were obtained:
Eugenol oxidase (EUGO) [1] = target: T1, Eugenol oxidase (EUGO) (Rhodococcus jostii, UniProt Q0SBK1); assay: crystal structure; format: binding; conditions: covalent; His390 to C8M of flavin
T1 construct: gene RHA1_ro03282; homodimer
T1 sequence (Q0SBK1 1-526): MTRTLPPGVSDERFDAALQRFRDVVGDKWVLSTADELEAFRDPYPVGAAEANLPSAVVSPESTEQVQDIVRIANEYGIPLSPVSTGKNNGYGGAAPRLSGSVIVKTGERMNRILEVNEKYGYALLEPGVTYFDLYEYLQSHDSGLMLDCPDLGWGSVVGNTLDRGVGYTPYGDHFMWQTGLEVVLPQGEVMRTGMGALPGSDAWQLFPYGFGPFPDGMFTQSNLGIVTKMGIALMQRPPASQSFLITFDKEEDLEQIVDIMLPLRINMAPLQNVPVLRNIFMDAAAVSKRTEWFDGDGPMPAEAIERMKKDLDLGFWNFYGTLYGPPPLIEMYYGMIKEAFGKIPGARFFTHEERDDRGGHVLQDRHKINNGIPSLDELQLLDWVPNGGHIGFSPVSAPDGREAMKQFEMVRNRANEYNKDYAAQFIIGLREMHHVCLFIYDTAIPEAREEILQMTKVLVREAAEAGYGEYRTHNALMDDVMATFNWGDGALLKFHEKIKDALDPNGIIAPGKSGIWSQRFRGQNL

Eugenol oxidase (EUGO) [2] = target: T1, Eugenol oxidase (EUGO); assay: crystal structure of unsoaked native crystals; format: binding; conditions: weak inhibitor; density tentatively assigned, co-purified; active site Tyr-Tyr-Arg

Cc1cc2nc3c(=O)[nH]c(=O)nc-3n(C[C@H](O)[C@H](O)[C@H](O)COP(=O)(O)OP(=O)(O)OC[C@H]3O[C@@H](n4cnc5c(N)ncnc54)[C@H](O)[C@@H]3O)c2cc1C [FAD]
crystal structure (Eugenol oxidase (EUGO) [1]): covalent bond between His390 (equivalent to His422 of VAO) and the C8M atom

O=C(O)c1ccccc1 [benzoate]
crystal structure of unsoaked native crystals (Eugenol oxidase (EUGO) [2]): we found benzoate to be a weak EUGO inhibitor
